The values that follow come from patent US20250361243A1, “Compounds and Pharmaceutical Compositions Useful for Managing Sickle Cell Disease and Conditions Related Thereto” (Emory University, priority 2022, published 2025).

As usually defined, the EC50 is the midpoint of the concentration-response curve.

Common to all, as to type: cell-based
In one experiment the test system is ss Mouse RBC. Briefly: Imaging-based anti-sickling assay, ss mouse RBC. Conditions: read-out: Anti-sickling activity (EC50; μM) ss Mouse RBC. The source says:
(§1) An imaging assay utilizing automated microscopy and customized algorithms was used to detect sickled or normal (round shaped) RBCs. The assay is capable of discovering anti-sickling agents with physiologically relevant oxygen affinity. The assay uses native mouse or human RBCs, enabling one to identify a broader spectrum of agents and is not restricted to compounds that require direct interaction (e.g., with purified hemoglobin). Thus, in contrast to hemoglobin binding assays, this approach allows for the identification of additional classes of anti-sickling agents that modulate pathways affecting RBC sickling. Compounds resulting from the experiments are also useful for investigating SCD pathophysiology.
(§2) The imaging-based protocol that can distinguish sickled vs normal (round) phenotype of intact RBCs originating from genetically engineered mice expressing human hemoglobin genes (the HbSS Townes knock-in sickle mice), or 2) SCD patients. The imaging was conducted using a BioTek Cytation™ cell imaging multimode reader and software to detect sickled or normal round-shaped phenotype of RBCs with negative control (vehicle treatment) and a positive control, 5-hydroxymethylfurfural (5-HMF).

The test system of a further experiment is Human RBC. As to the kind of experiment: Imaging-based anti-sickling assay, human RBC.
Excerpt: as §1, §2

In a further experiment the test system is RBCs. As to the kind of experiment: Anti-sickling activity normalized to 5 mM 5-HMF (Table 2). Conditions: for EC50: read-out: EC50 for anti-sickling activity (uM, normalized to positive control of 5 mM 5-HMF).
Excerpt: as §1, §2

Setting [1] is: Homo sapiens; read-out: Anti-sickling activity (EC50; μM) Human RBC.

Where two headings read alike, the source gives them in different places. A value given as a limit tells only on which side of the number the result lay.

Take `O=C1C=CC(=O)N1c1cccc(Cl)c1` [HDYB-1, 1-(3-chlorophenyl)-1H-pyrrole-2,5-dione]: the EC50 came out at 5 µM with ss Mouse RBC and 6.3 µM in the experiment with Human RBC (setting [1]).
Regarding `Cc1ccc(N2C(=O)C=CC2=O)cc1Cl` [HDYB-2, 1-(3-chloro-4-methylphenyl)-1H-pyrrole-2,5-dione], the EC50 in the experiment on ss Mouse RBC is 15 µM; in the experiment with Human RBC (setting [1]), 19 µM.
The like results for `O=C1C=CC(=O)N1c1cccc(C(F)(F)F)c1` [HDYB-3, 1-(3-(trifluoromethyl)phenyl)-1H-pyrrole-2,5-dione] were, in that order, 12 µM and 12 µM.
The like results for `O=C1C=CC(=O)N1c1ccccc1` [HDYB-5, 1-phenyl-1H-pyrrole-2,5-dione] were, in that order, 21 µM and 17 µM.
As to `O=C1C=CC(=O)N1c1ccc(Br)cc1Cl` [HDYB-6, 1-(4-bromo-2-chlorophenyl)-1H-pyrrole-2,5-dione], the EC50 in the experiment on ss Mouse RBC turned out to be 20 µM; with Human RBC (setting [1]) it was 12 µM.
The like results for `Cc1cc(Cl)cc(-c2ccccc2)c1N1C(=O)C=CC1=O` [HDYB-8, 1-(5-chloro-3-methyl-[1,1′-biphenyl]-2-yl)-1H-pyrrole-2,5-dione] were, in that order, under 100 µM and under 100 µM.
The like results for `O=C1C=CC(=O)N1CCCCN1C(=O)C=CC1=O` [HDYB-9] were, in that order, 29 µM and 78 µM.
As to `O=C1C=CC(=O)N1c1cccc(N2C(=O)C=CC2=O)c1` [HDYB-10], the results for the EC50 in the experiment on ss Mouse RBC and in the experiment on Human RBC (setting [1]) were 78 µM and 57 µM, respectively.
The like results for `O=C1C=C(Nc2ccccc2)C(=O)N1c1ccccc1` [HDYB-11] were, in that order, under 100 µM and under 100 µM.
With `Cc1ccc(Cl)cc1N1C(=O)C=CC1=O` [HDYB-12, 1-(5-chloro-2-methylphenyl)-1H-pyrrole-2,5-dione], the EC50 came to 16 µM in the experiment with ss Mouse RBC and 12 µM in the experiment on Human RBC (setting [1]).
Consider `O=C1C=CC(=O)N1c1ccc(Br)c(Cl)c1` [HDYB-14, 1-(4-bromo-3-chlorophenyl)-1H-pyrrole-2,5-dione], for which the EC50 in the experiment with ss Mouse RBC amounted to 27 µM; in the experiment with Human RBC (setting [1]), 23 µM.
The like results for `O=C1C=CC(=O)N1c1cccnc1` [HDYB-15] were, in that order, under 100 µM and under 100 µM.
In the same order, the values of `Cc1ccc(N2C(=O)C=CC2=O)nc1` [HDYB-16] are under 100 µM and under 100 µM.
On to `O=C1C=CC(=O)N1c1cnc2ccccc2c1` [HDYB-17], for which the concentration giving a half-maximal response (EC50) in the experiment on ss Mouse RBC and in the experiment on Human RBC (setting [1]) was under 100 µM in each case.
With `O=C1C(=O)N(Cc2ccccc2)c2ccc(Cl)cc21` [HDYB-19], the EC50 in the experiment with ss Mouse RBC was 27 µM; in the experiment on Human RBC (setting [1]) it was 25 µM.
In the same order, the values of `O=C1C(=O)N(Cc2ccc(C(F)(F)F)cc2)c2ccc(Cl)cc21` [HDYB-20] are 22 µM and 26 µM.
As to `Cc1ccc(N2C(=O)C=CC2=O)cc1` [HDYB-21, 1-(p-tolyl)-1H-pyrrole-2,5-dione], the EC50 in the experiment on ss Mouse RBC worked out at 37 µM; in the experiment on Human RBC (setting [1]), 32 µM.
In the same order, the values of `O=C1C=CC(=O)N1c1ccc(I)cc1` [HDYB-22, 1-(4-iodophenyl)-1H-pyrrole-2,5-dione] are 13 µM and 41 µM.
As for `O=C1C=CC(=O)N1c1ccc(-c2ccccc2)cc1` [HDYB-23, 1-([1,1′-biphenyl]-4-yl)-1H-pyrrole-2,5-dione], the EC50 was found to be 68 µM in the experiment on ss Mouse RBC and 52 µM in the experiment on Human RBC (Homo sapiens, read-out: Anti-sickling activity (EC50; μM) Human RBC).
In the case of `O=C1C=CC(=O)N1c1cccc(F)c1` [HDYB-24, 1-(3-fluorophenyl)-1H-pyrrole-2,5-dione], the EC50 turned out to be 11 µM in the experiment on ss Mouse RBC and 14 µM with Human RBC (setting [1]).
In the case of `O=C1C=CC(=O)N1c1cc(Cl)c(N2C(=O)C=CC2=O)cc1Cl` [HDYB-25, 1,1′-(2,5-dichloro-1,4-phenylene)bis(1H-pyrrole-2,5-dione)], the EC50 with ss Mouse RBC amounted to 10 µM; in the experiment on Human RBC (setting [1]), 12 µM.
On to `O=C1C=CC(=O)N1c1ccc2c(c1)CCO2` [HDYB-26, 1-(2,3-dihydrobenzofuran-5-yl)-1H-pyrrole-2,5-dione], for which the EC50 in the experiment on ss Mouse RBC was 9 µM; in the experiment on Human RBC (setting [1]), 13 µM.
In the same order, the values of `O=C1OCc2ccc(N3C(=O)C=CC3=O)cc21` [HDYB-27, 1-(3-oxo-1,3-dihydroisobenzofuran-5-yl)-1H-pyrrole-2,5-dione] are 10 µM and 11 µM.
In the case of `CC(C)CCNCC(O)Cn1c2ccc(Cl)cc2c2cc(Cl)ccc21` (stereo not shown) [SCAS2-A2, 1-(3,6-dichloro-9H-carbazol-9-yl)-3-(isopentylamino) propan-2-ol], the “Anti-sickling activity (%, normalized to positive control of 5 mM 5-HMF)” value came to 21.45% with RBCs (10 uM), 25.26% with RBCs (33 uM) and 213.95% in the experiment on RBCs (100 uM).
In the same order, the values of `CC(C)CCNCC(O)Cn1c2ccc(Br)cc2c2cc(Br)ccc21` (stereo not shown) [SCAS2-A13, 1-(3,6-dibromo-9H-carbazol-9-yl)-3-(isopentylamino) propan-2-ol] are 71.04%, 90.158% and 35.39%.
In the same order, the values of `CCC(C)NCC(O)Cn1c2ccc(Cl)cc2c2cc(Cl)ccc21` (stereo not shown) [SCAS2-A14, 1-(sec-butylamino)-3-(3,6-dichloro-9H-carbazol-9-yl) propan-2-ol] are 24.26%, 78.71% and 131.87%.
For `COc1ccc(Cl)cc1NC(=O)Nc1nc2c(s1)CN(S(=O)(=O)N(C)C)CC2` [SCAS2_01, 2-(3-(5-chloro-2-methoxyphenyl)ureido)-N,N-dimethyl-6,7-dihydrothiazolo[5,4-c]pyridine-5 (4H)-sulfonamide], the EC50 in the experiment with RBCs amounted to 1.1 µM.
Regarding `Nc1nc2ccc(S(=O)(=O)N3CCCCC3)cc2s1` [SCAS2_02, 6-(piperidin-1-ylsulfonyl)benzo[d]thiazol-2-amine], the EC50 in the experiment with RBCs was found to be 25.4 µM.
In the case of `COc1ccc(Cl)cc1NC(=O)Nc1nc2c(s1)CN(S(=O)(=O)C1CC1)CC2` [SCAS2_05, 1-(5-chloro-2-methoxyphenyl)-3-(5-(cyclopropylsulfonyl)-4,5,6,7-tetrahydrothiazolo[5,4-c]pyridin-2-yl)urea], the “round shape morphology of RBCs” value in the experiment with Human RBC (FIG. 2; 50 μM; compared to normoxic conditions and control drug 5 mM 5-HMF) is on record as “fully restore round shape morphology”. The “prevention of sickling of RBCs from sickle cells patients” value with Human RBC (FIG. 2; dose response) is recorded as “dose dependently prevent sickling”. For the same compound, the EC50 in the experiment on RBCs came out at 2.25 µM.
As to `CC(C)(C)SCC(O)Cn1c2ccc(Cl)cc2c2cc(Cl)ccc21` (stereo not shown) [SCAS2_61, 1-(tert-butylthio)-3-(3,6-dichloro-9H-carbazol-9-yl) propan-2-ol], the EC50 in the experiment on RBCs came to 3.12 µM.
